Results as given in patent US7662767B2, “Polynucleotide intercalator interceptors and inhibitors” (Materials Evolution and Development USA, Inc., priority 2000, dated 2010).

Legend:
[1] = Acridine orange self-association (AO-AO dimer), absorbance; assay type: binding
Protocol: Association constants were calculated using a modification of an equation described by Zaini et al. (1999) to determine equilibrium constants for weakly bound complexes by absorbance spectrophotometry. By definition K=Xd/(Xm* Xm), where K is the binding constant Kassoc, Xd is the concentration of the AO dimer and Xm is the concentration of the AO monomer. Conservation of mass gives Xt=Xm+2*Xd, where Xt is the total concentration of AO in solution. Rearranging the conservation of mass equation gives Xm=Xt−2*Xd, and substituting into the equation for Kassoc and rearranging gives Equation 4: Kassoc(Xt*Xt−4*Xt*Xd+4*Xd*Xd)−Xd=0 EQUATION 4:
Rearranging gives: Xd*Xd−(Xt+1/(4*.Kassoc)*Xd+Xt*Xt/4=0 EQUATION5:
Applying the quadratic formula (X=[−B±SQRT(B^2−4AC]/2A) to Equation 3-5 and taking a physically reasonable root gives Equation 3-6: Xd=[Xt+1/(4*K)−SQRT(Xt/(2*K)+1/[…])]/2 EQUATION 6:
Where SQRT ( ) indicates taking the square root of the content of the parentheses. The fluorescence values at λem 530 nm (F530) is a function of Xt and F530=Xd*ε, where “ε” is the fluorescence yield of the dimer. The equation was solved by non-linear least squares using Prism™ software and binding constants determined. […] Fluorescence values (fi) are reported as raw data normalized to scale and not adjusted by a dilution factor following aliquot additions. Absorbance data taken at 468 nm was also used to calculate the Kassoc for the AO-AO dimer using Equation 6.
In the example shown in FIG. 3-1A, absorbance was scanned between 400 nm and 550 nm over a range of AO concentrations from 2.5 μM to 20 μM in a 5 mM solution of HEPES buffer at pH 7.0. […] Note that the absorbance at 492 nm (A492) is indicative of the concentration of the AO monomer, whereas the absorbance at 468 nm (A468) is indicative of the concentration of the AO-AO dimer (Kapuscinski and Kimmel, 1993). […]
The absorbance was scanned between 410 nm and 540 nm over a range of AO concentrations from 10 μM-45 μM in a 5 mM solution of […] buffer at pH 7.0 in the presence of 150 mM of NaCl. […]

[2] = tested on: herring sperm dsDNA; assay: Acridine orange titrated with dsDNA, absorbance; assay type: binding; conditions: AO-DNA
From the text: Experiments were undertaken to characterize the interaction of AO with DNA over a range of DNA base pairs (bp) to AO ratios in the absence of, and in the presence of, a physiological concentration of NaCl. […] The example shown in FIG. 3-6 is a dsDNA bp: AO ratio of selected spectra denoting important transitions within the titration series are denoted with bolder lines. Some of the spectral series is not shown to simplify the data presentation. At bp: AO ratios between 0.0 and 0.75, prevalent peaks occur at 8abs of 468 nm and 492 nm. […] The absorbance spectra from bp: AO ratios above 0.75 denote a definitive red-shift in absorbance with the simultaneous creation of two distinct peaks, one at 475 nm and the other at 503 nm. With continued additions of aliquots of DNA, the absorbance peak near 468 nm is still apparent while the initial main absorbance peak at 492 nm is minimally detectable. […] Additionally, at bp:AO ratios of about 1.72. The absorbance peak near λabs 503 nm increased in amplitude with each additional aliquot of DNA. […] The association constant was calculated from a plot of delta absorbance values at 504 nm versus DNA concentration (see inset FIG. 3-7). The DNA concentrations ranged from 30:M to 170:M.

CN(C)c1ccc2cc3ccc(N(C)C)cc3nc2c1.Cl [AO, 3,6-bis[dimethylamino]acridine hydrochloride]
K ± S.D. ([1]; Absorbance plus NaCl, AO [10-45 μM]): 47,510 ± 2,420 M^−1 | K ± S.D. ([1]; Absorbance, AO [2.5-20 μM]): 46,840 ± 5,967 M^−1 | K ± S.D. ([1]; Absorbance, AO [10-80 μM]): 49,530 ± 2,953 M^−1 | K ± S.D. ([2]; Absorbance (504 nm), AO [3 μM], DNA [5-170 μM], hydrochloride): 37,660±431 M^−1 | K ± S.D. ([2]; Absorbance (504 nm), AO [3 μM], DNA [5-170 μM], listed as AO-DNA, hydrochloride): 37,660 ± 431 M^−1 | K ± S.D. ([2]; Absorbance, AO [0.1-3 μM], DNA [100 μM]): 33,510 ± 285 M^−1 | K ± S.D. ([2]; Absorbance, AO [0.8-3.4 μM], DNA [20 μM]): 31,960 ± 316 M^−1
